Source: patent US20110071198A1 (priority 2008, published 2011)
Read-outs that look alike come from different tables or passages of the source. Each block holds one compound with its values, some of them ahead of it.

Tests used:
[1] = literature; cited from earlier work
cPLA2 = format: cell-based; details: pretreatment of cells
[2] = i.p. 10, 50 or 100 mg/kg; wild-type C57BL/6, β-arrestin1-deficient and β-arrestin2-deficient mice
Procedure: (§1) FIG. 7. […] Animal use and protocols. All animal studies were reviewed and approved by the Duke University Internal Animal Care and Use Committee. […] Age- and weight-matched male mice over 12 weeks of age were used in all experiments. […] The animals were euthanized 30 minutes later. Serum was collected and stored at −80° C. […] After 10 minutes, the mice were placed under an LDPI laser Doppler (PeriScan PIM II; Perimed). The right ear was everted to expose the anterior/ventral surface. The laser Doppler was focused on the central portion of the ventral ear. Data were collected using the repeated data collection mode with a 5-mm×5-mm image size, a 10-second delay, and high-resolution scan. […] Readings were continually recorded for 30 minutes. As a control, each animal was subsequently treated with 4 mg/kg PGD2 dissolved in PBS.

[3] = Mouse cutaneous flushing assay (laser Doppler perfusion of ventral ear); format: in vivo, mice; details: i.p. 100 mg/kg
Procedure: FIGS. 8A-8E. […] Animal use and protocols. […] The animals were euthanized 30 minutes later. Serum was collected and stored at −80° C. […] Readings were continually recorded for 30 minutes.

peritoneal macrophages = details: 200 μM, 10 minutes
Procedure: as §1, with “FIGS. 8A-8E. […] Data are mean±SEM for change in perfusion as a function of time. […] (FIG. 8D) Maximum response to PGD2, plotted as mean±SEM (n=15−25 per condition). […] Thioglycollate-elicited peritoneal macrophages were loaded with H3-arachidonic acid (H3-AA) for 24 hours, and then rinsed to remove arachidonic acid not incorporated into cell membrane lipids.” for “FIG. 7.”

[4] = set-up: species or system mice; details: mouse, in vivo
Procedure: FIG. 10. […]. Perfusion of the ventral ear in age and weight matched wild-type C57B1/6 mice was measured with laser doppler. […] The first dose was 25 mg/kg, the second dose was 50 mg/kg and the third dose was 100 mg/kg. Wild-type (rechallenge) mice received all three doses of nicotinic acid and wild-type (control) mice received the first dose of nicotinic acid followed by two subsequent doses with vehicle alone. Plotted values represent the mean change in perfusion as a function of time from 8 animals.

Langerhans cells = details: 10 μM for 10 minutes
Procedure: Data are mean±SEM of 3 independent experiments.
The plates were transferred on ice, and cells were washed twice with ice-cold PBS and then scraped in PBS containing complete protease inhibitor cocktail (Roche Applied Sciences). Cells were lysed by brief sonication and then centrifuged at 3,000 g for 5 minutes to remove unbroken cells and nuclear fractions. Subsequently, the supernatant was centrifuged at 21,000 g for 30 minutes to separate the membrane fraction (in the pellet) and cytosolic fraction (in the supernatant). The membrane pellet was resuspended in PBS, proteins in the membrane and the cytosolic fractions were measured by Bradford assay, and β-arrestins were detected by Western blot analysis.

[5] = test system: differentiated THP-1 macrophages; details: 200 μM for 10 minutes; data not shown
[6] = nicotinic acid therapy; cited from earlier work
GPR109A [7] = target: T1, GPR109A (Homo sapiens, UniProt Q8TDS4); test: ICUE cAMP assay in HEK-293 cells expressing FLAG-GPR109A and ICUE2 biosensor; format: cell-based
T1 construct: expressed in transfected cells; plus Zeocin with ICUE2
Procedure: ICUE cAMP assay. […] Experiments were performed on a NOVOstar plate reader (BMG Labtech).

GPR109A [8] = target: T1, GPR109A; test: Phosphorylated ERK immunoblotting in HEK-293 cells; format: cell-based; details: GPR109A-expressing cells

T1 sequence (Q8TDS4 whole entry, species assumed): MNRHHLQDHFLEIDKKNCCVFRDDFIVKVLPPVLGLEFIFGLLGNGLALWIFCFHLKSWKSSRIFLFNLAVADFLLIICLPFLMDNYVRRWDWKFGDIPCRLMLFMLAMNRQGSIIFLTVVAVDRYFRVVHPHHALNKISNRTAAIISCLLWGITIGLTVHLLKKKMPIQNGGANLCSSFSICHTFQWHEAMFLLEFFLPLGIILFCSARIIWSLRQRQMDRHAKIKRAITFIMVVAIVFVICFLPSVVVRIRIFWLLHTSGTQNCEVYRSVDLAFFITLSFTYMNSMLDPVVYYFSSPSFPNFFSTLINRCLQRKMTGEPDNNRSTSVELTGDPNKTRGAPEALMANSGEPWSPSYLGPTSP

Compound: C1Cc2[nH]nc(-c3nn[nH]n3)c2C1 [MK-0354]
cutaneous flushing [1]: do not induce cutaneous flushing
serum FFAs [1]: decrease serum FFAs

Compound: COc1cccc(-c2cc(=O)c3ccccc3o2)c1N [PD98059]
basal level of phosphorylated cPLA2 after pretreatment (cPLA2): substantially increased

nicotinic acid-stimulated increase in perfusion in β-arrestin1-deficient mice ([3]; versus wild type): dramatically decreased
perfusion of the ventral ear ([3]; wild-type and β-arrestin2-deficient mice): dramatic increase in perfusion
tachyphylaxis to cutaneous vasodilation/flushing [4]: rapid tachyphylaxis
Compound: O=C(O)c1cccnc1 [nicotinic acid, Nicotinic acid]
serum FFAs [2]: significant and essentially identical decreases in FFAs
release of radiolabeled eicosanoids in β-arrestin1-deficient cells (peritoneal macrophages; versus wild type): significantly reduced
release of radiolabeled eicosanoids (peritoneal macrophages; wild-type and β-arrestin2-deficient macrophages): increased
recruitment of β-arrestin1 to the membrane of Langerhans cells (Langerhans cells): robust recruitment
β-arrestin1 translocation in differentiated THP-1 macrophages [5]: led to β-arrestin1 translocation
occurrence of cutaneous vasodilation or flushing side effect [6]: ~80 % of patients

Compound: pertussis toxin
MK-0354-induced cAMP decrease, sensitivity to pertussis toxin (GPR109A [7]; agonist MK-0354): sensitive
nicotinic acid-induced cAMP decrease, sensitivity to pertussis toxin (GPR109A [7]; agonist nicotinic acid): sensitive
effect on nicotinic acid-stimulated ERK phosphorylation (GPR109A [8]): all but eliminated
basal level of phosphorylated cPLA2 after pretreatment (cPLA2): substantially increased
